Laboratory results: patent US20180066004A9, “MITOCHONDRIA-TARGETING PLATINUM(IV) PRODRUG” (priority 2014, published 2018)

Tests used:
PC3 cells = test: XF24 MitoStress assay (OCR), PC3; type: cell-based, human; conditions: 10 μM with respect to Pt, 12 h
Excerpt: (§1) Mitochondrial Toxicity of T-NP. […] Many TPP-based small molecules were described to disrupt ΔΨm, uncouple OXPHOS, and inhibit mitochondrial respiration. Preclinical mitochondrial toxicology tests can have high positive predictive value. We examined Empty-T-NP, Empty-nontargeted-NPs (NT-NP), and DBCO-TPP induced changes in mitochondrial respiration of prostate cancer (PCa) PC3 cells and cisplatin resistant ovarian cancer A2780/CP70 cells as a measure of mitochondrial toxicity (FIG. 3B). The oxygen consumption rate (OCR) of cells is an important indicator of normal mitochondrial functions. Thus, OCR can be used as a parameter to study TPP-induced mitochondrial toxicity.
(§2) After 12 h, OCR was measured and the effects of metabolic modulators oligomycin, carbonyl cyanide 4-(trifluoromethoxy)phenylhydrazone (FCCP), antimycin A, and rotenone allowed determination of multiple parameters of mitochondrial function (FIG. 3B). […] Several parameters linked to mitochondrial respiration; spare respiratory capacity, coupling efficiency, basal respiration, ETC accelerator response, and ATP coupler response were calculated from the OCR (pMoles/min) vs. Time (min) traces in FIG. 3B.
(§3) Mitochondrial Bioenergetics. We next investigated basal respiration, coupling efficiency, and spare respiratory capacity in response to Platin-M and its NPs using a XF24 MitoStress assay kit (FIG. 5). To determine whether accumulation of Platin-M inside the mitochondrial matrix of PC3 or A2780/CP70 cells inhibited mitochondrial respiration, we measured oxygen consumption rates (OCRs) in these cells as a way of assessing OXPHOS. […] PC3 or A2780/CP70 cells were treated with Platin-M, cisplatin, T-Platin-M-NPs, NT-Platin-M-NPs for 12 h.
(§4) Mito-stress Test Analysis: Different parameters of respiration: basal respiration, coupling efficiency, and spare respiratory capacity were investigated by using Seahorse XF-24 cell Mito Stress Test Kit. Prior to the assay, XF sensor cartridges were hydrated. To each well of an XF utility plate, 1 mL of Seahorse Bioscience calibrant was added and the XF sensor cartridges were placed on top of the utility plate, and kept at 37° C. incubator without CO2 for a minimum of 12 h. PC3, A2780-CP70, SH-SY5Y, and H9C2 (FIG. S18) cells were cultured in XF24-well cell culture microplates (Seahorse Bioscience) at a density of 2.5×10^4 cells/well (except for H9C2, cell density of this cell line: 5×10^4 cells/well) (0.32 cm2) in 200 μL growth medium and then incubated for 24 h at 37° C. in 5% CO2 atmosphere. […] After 12 h, all but 50 μL of the culture medium was removed from each well and the cells were rinsed two times with 500 μL of XF stress test glycolysis optimization medium pre-warmed to 37° C. and finally 450 μL of glucose depleted optimization medium was added to each well and the plate was placed at 37° C. without CO2 for 1 h prior to assay. Different parameters of respiration were calculated by subtracting the average respiration rates before and after the addition of the electron transport inhibitors oligomycin (1.0 μM), trifluorocarbonylcyanide phenylhydrazone or FCCP (1.0 μM), an ionophore that is a mobile ion carrier, and a mixture of antimycin-A (1.0 μM) which is a complex III inhibitor and rotenone (1.0 μM), a mitochondrial inhibitor that prevents the transfer of electrons from the Fe-S center in Complex I to ubiquinone. The parameters calculated included: basal respiration (baseline respiration minus antimycin-A post injection respiration), ATP turnover (baseline respiration minus oligomycin post injection respiration), maximal respiratory capacity (FCCP stimulated respiration minus antimycin-A post injection respiration) and reserve respiratory capacity (FCCP stimulated respiration minus baseline respiration). Test articles on each well had four replicates (data not shown).

[1] = Electrochemistry of Platin-M (redox potential); type: physicochemical; conditions: 1 mM in 20% DMF-PBS, 0.1 M KCl, 25° C.
Excerpt: We recently developed a cycloaddition approach to introduce numerous functionalities on to Pt(IV) with high efficiency by keeping in mind that copper(I) based click chemistry can also cause reduction of Pt(IV). A TPP moiety was introduced on dibenzocyclooctyne (DBCO) derivative to result DBCO-TPP (FIG. 2, FIGS. S1-S4). A strain-promoted alkyne-azide cycloaddition (SPAAC) reaction between an azide-Pt(IV) precursor Platin-Az (Pathak, R. K., et al. Chem Eur J DOI: 10.1002/chem.201402573) recently developed by us and DBCO-TPP resulted Platin-M with high efficiency (FIG. 2). The prodrug Platin-M was characterized using microanalysis and spectroscopic techniques (FIGS. S5-S10). Feasible cellular reduction of Pt(IV) prodrug is required to release active cisplatin.
Electrochemistry of Platin-M: Electrochemical measurements were made at 25° C. on an analytical system model CHI 920c potentiostat from CH Instruments, Inc. (Austin, Tex.). A conventional three-electrode set-up comprising a glassy carbon working electrode, platinum wire auxiliary electrode, and an Ag/AgCl (3M KCl) reference electrode was used for electrochemical measurements. The electrochemical data were uncorrected for junction potentials. KCl was used as a supporting electrolyte. Platin-M (1 mM) solutions were prepared in 20% DMF-phosphate buffered saline (PBS) of pH 6.0 and 7.4 with 0.1 M KCl and voltammograms were recorded at different scan rates (data not shown).

[2] = tested on: human mesenchymal stem cells (hMSCs)
Description: (§5) PC3 cells (2000 cells/well), A2780/CP70 cells (2000 cells/well), SHSY-5Y (2000 cells/well), and MSC (2000 cells/well) were plated on a 96 well plate and allowed to grow overnight. The media was changed and increasing concentrations of each formulation was added. […] Control values were set at 0% cytotoxicity or 100% cell viability.

mtDNA = test: mtDNA-Pt adduct quantification; type: cell-based, human; conditions: treated PC3 cells
Description: (§6) This might be due to the fact that for T-NP system, Platin-M needs to be released from the NPs prior to reduction to cisplatin and subsequent mtDNA interaction and all Platin-M might not have released from the NPs during the course of this experiment, mtDNA isolation was carried out after 12 h which corresponds to only ˜50% of Platin-M will be released from T-NPs (FIG. 4B).
(§7) mtDNA-Pt and nDNA-Pt Adduct Quantification: The mitochondria and nuclei were isolated according to protocol mentioned before. These fractions were further fractionated in order to isolate mitochondrial and genomic DNA, respectively. For mitochondrial DNA (mtDNA), the freshly isolated mitochondria were re-suspended in 35 μL of mitochondrial lysis buffer. To this, 5 μL of the enzyme mix was added. This was incubated at 50° C. in water bath until the solution turned clear (˜1 h). To this, 100 μL of absolute ethanol was added and the resulting solution was incubated for 10 min at −20° C. […] The resulting solution was quantified for the amount and purity of DNA by UV-Vis spectroscopy (260/280 nm) and the amount of Pt by ICP-MS. […] Reprecipitation with 70% ethanol in nanopure H2O was performed until the ratio of the absorbances at 260 and 280 nm was […]. […] The resulting solution was quantified for the amount of DNA by UV-Vis spectroscopy (260/280 nm) and the amount of Pt by ICP-MS.

[3] = Platin-M ability to form micelles (nanoprecipitation, DLS); type: physicochemical; conditions: DMF solution of Platin-M into water
Excerpt: Morphology of T-Platin-M and NT-Platin-M-NPs was investigated using transmission electron microscopy (TEM) (FIG. 4A). […] Percent loading of Platin-M varied between 6 to 27% based on the percent feed with respect to polymer feed (FIG. 4A, Tables S1 and S2). Given the amphiphilic character of Platin-M with two cationic TPP head groups and lipophilic DBCO moieties, we questioned whether the high loading of Platin-M is due to formation of self-micelles.
Determination of Platin-M Ability to Form Micelles: Platin-M was dissolved in DMF to a final concentration of 1.5 mg/mL. This solution was added drop wise slowly into vigorously stirring nanopure water (10 mL) and stirred at room temperature for 3 h. This solution was then filtered and washed through Amicon filters with a MW cutoff of 100 kDa 3 times in order to ensure the removal of all residual organic solvent. Finally, the NPs were resuspended in nanopure water (1 mL) and filtered through a 0.2 μm filter. The resulting suspension was characterized by DLS.

[4] = tested on: cisplatin resistant A2780/CP70 cells; test: XF24 MitoStress assay (OCR), A2780/CP70; type: cell-based, human; conditions: 10 μM with respect to Pt, 12 h; for ATP-linked respiration on addition of oligomycin / basal OCR levels versus control cells / stimulation of mitochondrial respiration with FCCP after oligomycin: A2780/CP70
Excerpt: as §1, §2, §3, §4

nDNA = test: nDNA-Pt adduct quantification; type: cell-based, human; conditions: treated PC3 cells, 12 h
Description: as §6, §7

[5] = tested on: human neuroblastoma SH-SY5Y cell line; test: MTT cytotoxicity assay, SH-SY5Y; type: cell-based; conditions: free drugs 72 h, NPs media changed after 12 h plus 60 h
Description: (§8) In vitro cytotoxicity of Platin-M, T-Platin-M, and NT-Platin-M was assessed by the 3-(4,5-dimethylthiazol-2-yl)-2,5-diphenyltetrazolium bromide or MTT assay on PCa PC3 cell line, human neuroblastoma SH-SY5Y cell line, and cisplatin resistant A2780/CP70 ovarian cancer cell line (Table 1). The rationale behind the use of androgen independent PC3 cell line was the inherent resistance of these cells to cisplatin therapy due to enhanced repair of Pt-nDNA adducts by the NER, poor targeting, and androgen-independent PCa with reduced normal mtDNA acquire a more progressive phenotype by inducing mutations to nDNA.
as §5

PCa PC3 cell line = test: MTT cytotoxicity assay, PC3; type: cell-based, human; conditions: free drugs 72 h, NPs media changed after 12 h plus 60 h
Description: as §8, §5

[NH2][Pt]([NH2])([Cl])([Cl])([O]C(=O)CCCCCn1nnc2c1-c1ccccc1CN(C(=O)CCNC(=O)CCCCC[P+](c1ccccc1)(c1ccccc1)c1ccccc1)c1ccccc1-2)[O]C(=O)CCCCC[n+]1n[nH]c2c1-c1ccccc1CN(C(=O)CCNC(=O)CCCCC[P+](c1ccccc1)(c1ccccc1)c1ccccc1)c1ccccc1-2 [Platin-M]
ATP-linked respiration on addition of oligomycin (PC3 cells): less reduction | basal OCR levels versus control cells (PC3 cells): less than control cells | stimulation of mitochondrial respiration with FCCP after oligomycin (PC3 cells): no enhancement in OCR levels | Redox potential vs. Ag/AgCl ([1]; pH 6.0): −0.369 V | Redox potential vs. NHE ([1]; pH 6.0): −0.269 | Redox potential vs. Ag/AgCl ([1]; pH 7.4): −0.376 V | Redox potential vs. NHE ([1]; pH 7.4): −0.275 | toxicity in hMSCs less than in the resistant cells ([2]; human, 72 h): ~3 times | mtDNA adduct compared to T-Platin-M-NP system (mtDNA; 12 h): marginally higher | Pt-mtDNA adduct formation (mtDNA; mtDNA isolated after 12 h): exhibited binding with mtDNA | PDI of particles from nanoprecipitation without polymer [3]: 0.799 | Size of particles from nanoprecipitation without polymer [3]: 941.6±589.5 nm | Zeta Potential of particles from nanoprecipitation without polymer [3]: −5.38±1.66 mV | inhibition of mitochondrial respiration in A2780/CP70 cells compared to PC3 cells [4]: to a greater extent | ATP-linked respiration on addition of oligomycin [4]: less reduction | basal OCR levels versus control cells [4]: less than control cells | stimulation of mitochondrial respiration with FCCP after oligomycin [4]: no enhancement in OCR levels

N.N.[Cl][Pt][Cl] [Cisplatin, Cisdiamminedichloridoplatinum(II), reference compound]
ATP-linked respiration on addition of oligomycin (PC3 cells): attenuated | basal OCR levels versus control cells (PC3 cells): did not show any changes | stimulation of mitochondrial respiration with FCCP after oligomycin (PC3 cells): comparable | Pt-nDNA adduct formation (nDNA): much higher than the level of cisplatin adducts in mtDNA | IC50 ([2]; hMSC, MTT, free drugs 72 h, NPs media changed after 12 h plus 60 h): 16.4 ± 0.5 µM | ATP-linked respiration on addition of oligomycin [4]: attenuated | basal OCR levels versus control cells [4]: did not show any changes | stimulation of mitochondrial respiration with FCCP after oligomycin [4]: comparable | IC50 [5]: 19 µM | IC50 (PCa PC3 cell line): 13.1 ± 0.1 µM
